This is an account of results in patent US9216968B2, “Heterocyclic derivative and pharmaceutical drug” (NIPPON SHINYAKU CO., LTD., priority 2011, dated 2015).

For experiment [1], the target named is human mPGES-1 (Homo sapiens (Human), UniProt O14684). As to the kind of experiment: mPGES-1 inhibiting activity (microsome fractions, PGE2 by HTRF). The class given is biochemical. The conditions noted are these: microsomes from CHO-K1 cells transfected with human mPGES-1; PGH2 1 μM, 4° C., 60 seconds; read-out: mPGES-1 Inhibition IC50. Put shortly:
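PGE2 formation read by HTRF after 60 s at 4 °C with 1 μM PGH2 substrate, following 20 min compound preincubation (1% DMSO) with human mPGES-1 microsomes from transfected CHO-K1 cells. Buffer: potassium phosphate, reduced glutathione, pH 7.4; IC50 from activity relative to enzyme-free blank.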

Experiment [2] concerns A549 cells. As to the kind of experiment: Inhibition of PGE2 production in A549 cell (IL-1β stimulated). The class given is cell-based, human. To be noted: Homo sapiens, A549, 24 h, IL-1β 5 ng/well, PGE2 in culture medium. An outline of the steps: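 After IL-1β (5 ng/well) stimulation for 24 h at 37 °C, following a 60-min compound pretreatment in RPMI with 3% FBS, medium PGE2 (HTRF) and PGF2α (EIA) from human A549 cells were quantified. 100% activity set as IL-1β-induced minus basal production; IC50 calculated.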

Counter-ions that a name gives are not always drawn.

Sequence of human mPGES-1 (O14684 whole entry): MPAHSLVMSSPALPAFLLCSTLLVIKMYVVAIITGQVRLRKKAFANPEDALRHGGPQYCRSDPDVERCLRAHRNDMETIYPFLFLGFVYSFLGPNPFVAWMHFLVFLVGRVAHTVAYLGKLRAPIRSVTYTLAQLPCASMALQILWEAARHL

In general, IC50 refers to the concentration needed to halve the response being measured. Take `Cc1c(Cl)cccc1NC(=O)c1cc(NC(=O)c2ccccc2C(F)(F)F)cc2[nH]c(N3CCCC3)nc12` [Example 164, N-(3-Chloro-2-methylphenyl)-2-(pyrrolidin-1-yl)-6-({[2-(trifluoromethyl)phenyl]carbonyl}amino)-1H-benzimidazole-4-carb oxamide hydrochloride]: the IC50 in experiment [1] turned out to be 0.3 nM; in experiment [2] it was 13.3 nM.

Take `COCc1nc2c(C(=O)Nc3cccc(Cl)c3C)cc(NC(=O)c3cccnc3Cl)cc2[nH]1` [Example 96, N-(3-Chloro-2-methylphenyl)-6-{[(2-chloropyridin-3-yl)carbonyl]amino}-2-(methoxymethyl)-1H-benzimidazole-4-carboxamide hydrochloride]: the half-maximal inhibitory concentration (IC50) was 34 nM in experiment [1] and 126 nM in experiment [2].

Regarding `Cc1c(Cl)cccc1NC(=O)c1cc(NC(=O)c2ccccc2C(F)(F)F)cc2[nH]c(C3CC3)nc12` [Example 83, N-(3-Chloro-2-methylphenyl)-2-cyclopropyl-6-({[2-(trifluoromethyl)phenyl]carbonyl}amino)-1H-benzimidazole-4-carboxamide hydrochloride], the half-maximal inhibitory concentration (IC50) turned out to be 9.8 nM in experiment [1] and 16.5 nM in experiment [2].

For `Cc1c(Cl)cccc1NC(=O)c1cc(NC(=O)c2ccc(Cl)cc2Cl)cc2[nH]c(N(C)C)nc12` [Example 184, N-(3-Chloro-2-methylphenyl)-6-{[(2,4-dichlorophenyl)carbonyl]amino}-2-(dimethylamino)-1H-benzimidazole-4-carboxamide hydrochloride], the IC50 in experiment [1] was determined as 1 nM; in experiment [2] it was 138 nM.

Turning to `COCc1nc2c(C(=O)Nc3cccc(Cl)c3C)cc(NC(=O)c3cc(Cl)ccc3Br)cc2[nH]1` [Example 107, 6-{[(2-Bromo-5-chlorophenyl)carbonyl]amino}-N-(3-chloro-2-methylphenyl)-2-(methoxymethyl)-1H-benzimidazole-4-carboxamide hydrochloride], the results for the IC50 in experiment [1] and in experiment [2] were 1.5 nM and 42 nM, respectively.

As for `COCc1nc2c(C(=O)NC3CCCCC3)cc(NC(=O)c3ccccc3C(F)(F)F)cc2[nH]1` [Example 20, N-Cyclohexyl-2-(methoxymethyl)-6-({[2-(trifluoromethyl)phenyl]carbonyl}amino)-1H-benzimidazole-4-carboxamide], the half-inhibitory concentration (IC50) in experiment [1] was found to be 5.6 nM; in experiment [2], 98 nM.

Regarding `Cc1c(Cl)cccc1NC(=O)c1cc(NC(=O)c2ccccc2C(F)(F)F)cc2[nH]c(CC(N)=O)nc12` [Example 44, 2-(2-Amino-2-oxoethyl)-N-(3-chloro-2-methylphenyl)-6-({[2-(trifluoromethyl)phenyl]carbonyl}amino)-1H-benzimidazole-4-carboxamide hydrochloride], the values for the 50% inhibitory concentration (IC50) in experiment [1] and in experiment [2] were 4.1 nM and 1100 nM, respectively.

In the case of `Cc1c(Cl)cccc1NC(=O)c1cc(NC(=O)c2cc(Cl)ccc2Cl)cc2[nH]c(NCCOC(C)C)nc12` [Example 193, N-(3-Chloro-2-methylphenyl)-6-{[(2,5-dichlorophenyl)carbonyl]amino}-2-{[2-(propan-2-yloxy)ethyl]amino}-1H-benzimidazole-4-carboxamide hydrochloride], the results for the half-inhibitory concentration (IC50) in experiment [1] and in experiment [2] were 0.4 nM and 18.9 nM, respectively.

For the compound `Cc1c(Cl)cccc1NC(=O)c1cc(NC(=O)c2ccccc2C(F)(F)F)cc2[nH]c(CC(C)(C)C)nc12` [Example 82, N-(3-Chloro-2-methylphenyl)-2-(2,2-dimethylpropyl)-6-({[2-(trifluoromethyl)phenyl]carbonyl}amino)-1H-benzimidazole-4-carboxamide hydrochloride], the values for the IC50 in experiment [1] and in experiment [2] were 0.4 nM and 6.3 nM, respectively.

In the case of `COCc1nc2c(C(=O)NCc3ccccc3Cl)cc(NC(=O)c3ccccc3C(F)(F)F)cc2[nH]1` [Example 24, N-(2-Chlorobenzyl)-2-(methoxymethyl)-6-({[2-(trifluoromethyl)phenyl]carbonyl}amino)-1H-benzimidazole-4-carboxamide hydrochloride], the half-inhibitory concentration (IC50) was 10.5 nM in experiment [1] and 751 nM in experiment [2].
